ChEMBL document CHEMBL5344441, “Discovery and Preclinical Pharmacology of NX-2127, an Orally Bioavailable Degrader of Bruton's Tyrosine Kinase with Immunomodulatory Activity for the Treatment of Patients with B Cell Malignancies” (J Med Chem, 2024)
Values after ≈ are worked out from the molar mass of the structure shown. Active and inactive are the calls of the source. No cut-off for these calls is given here.

Tests used:
[1] = target: T1, Protein cereblon-BTK (Macaca fascicularis) (UniProt A0A2K5UTB3+A0A7N9IGT8); assay: In vivo protac activity at CRBN/BTK in cynomolgus monkey assessed as remaining BTK protein in B cells at 10 mg/kg,po administration for 1 day by flow cytomtery relative to control; type: functional, organism-based
[2] = Cmax in cynomolgus monkey at 10 mg/kg,po administration for 1 day; type: ADME, organism-based, Macaca fascicularis; set-up: time 1 day, dose 10 mg/kg, route po; settings: in vivo, 24 h
[3] = target: Voltage-gated inwardly rectifying potassium channel KCNH2 (Homo sapiens, UniProt Q12809); assay: Inhibition of human ERG; type: toxicity
[4] = Cmax in mouse at 10 mg/kg,po; type: ADME, organism-based; set-up: dose 10 mg/kg, route po; settings: in vivo
[5] = target: T2, Protein cereblon/Zinc finger protein Aiolos (Macaca fascicularis) (UniProt A0A2K5UTB3+A0A2K5VJM3); assay: In vivo protac activity at CRBN/IKZF3 in cynomolgus monkey assessed as degradation of IKZF3 protein at 30 mg/kg,po administration for 14 days by flow cytomtery relative to control; type: functional, organism-based; settings: time 14.0 day
[6] = Plasma protein binding in cynomolgus monkey; type: ADME, cell-free, Macaca fascicularis; settings: read-out: PPB (converted)
[7] = target: T1, Protein cereblon-BTK (Macaca fascicularis); assay: In vivo protac activity at CRBN/BTK in cynomolgus monkey assessed as remaining BTK protein at 10 mg/kg,po administration measured after 24 hrs by flow cytomtery relative to control; type: functional, organism-based
[8] = target: Cereblon/Ikaros (Homo sapiens, UniProt Q96SW2+Q13422); assay: PROTAC activity at CRBN/IKZF1 in human T cell assessed as degradation of IKZF1 protein incubated for 24 hrs by flow cytometry; type: cell-based
[9] = Cmax in rat at 10 mg/kg,po; type: ADME, organism-based; set-up: dose 10 mg/kg, route po; settings: in vivo
[10] = target: T1, Protein cereblon-BTK (Macaca fascicularis); assay: In vivo protac activity at CRBN/BTK in cynomolgus monkey assessed as remaining BTK protein in B cells at 100 mg/kg,po administration for 1 day by flow cytomtery relative to control; type: functional, organism-based
[11] = tested on: TMD8; assay: Antitumor activity against human TMD8 cells expressing BTK C481S mutant xenografted in CB17-SCID mouse assessed as tumor growth inhibition at 90 mg/kg,po administration for 25 days; type: functional; settings: TMD8, 600 h, time 25 day, read-out: TGI
[12] = Lipophilicity, logD of compound at pH 7.4; type: physicochemical; settings: buffer
[13] = target: Tyrosine-protein kinase BTK (Homo sapiens, UniProt Q06187, C481S); assay: Binding affinity to BTK C481S mutant (unknown origin) assessed as dissociation constant by surface plasmon resonance assay
[14] = tested on: Protein cereblon/Tyrosine-protein kinase BTK (Homo sapiens); assay: In vivo protac activity at CRBN/BTK in CB17-SCID mouse xenografted with human TMD8 cells assessed as degradation of BTK protein in tumor at 10 to 90 mg/kg,po administration for 25 days by flow cytomtery; settings: dose 10-90 mg/kg, time 25.0 day
[15] = target: T2, Protein cereblon/Zinc finger protein Aiolos (Macaca fascicularis); assay: In vivo protac activity at CRBN/IKZF3 in cynomolgus monkey assessed as degradation of IKZF3 protein at 10 to 100 mg/kg,po administration by flow cytomtery; type: functional, organism-based; settings: dose 10-100 mg/kg
[16] = tested on: T-cell; assay: Activation of T-cellular function in anti-CD3/anti-CD28 activated human T cell assessed as increase in IL-2 secretion at 0.001 to 100 nM incubated for 24 hrs followed by anti-CD3/anti-CD28 stimulation by ELISA; type: functional, cell-based; settings: dose 0.001-100 nM
[17] = target: T2, Protein cereblon/Zinc finger protein Aiolos (Macaca fascicularis); assay: In vivo protac activity at CRBN/IKZF3 in cynomolgus monkey assessed as degradation of IKZF3 protein at 10 mg/kg,po administration for 14 days by flow cytomtery relative to control; type: functional, organism-based; settings: time 14.0 day
[18] = Plasma protein binding in mouse; type: ADME, cell-free; settings: read-out: PPB
[19] = tested on: TMD8; assay: Antitumor activity against human TMD8 cells expressing wild type BTK xenografted in CB17-SCID mouse assessed as tumor growth inhibition at 30 mg/kg,po administration for 25 days; type: functional; settings: TMD8, 600 h, time 25 day, read-out: TGI
[20] = Drug uptake in BALB/c mouse plasma at po administration; type: ADME, organism-based; settings: in vivo
[21] = Observed clearance in dog at 1 mg/kg,iv; type: ADME, organism-based, Canis lupus familiaris; settings: in vivo
[22] = Observed clearance in rat at 1 mg/kg,iv; type: ADME, organism-based; settings: in vivo
[23] = target: T1, Protein cereblon-BTK (Macaca fascicularis); assay: In vivo protac activity at CRBN/BTK in cynomolgus monkey assessed as remaining BTK protein in B cells at 10 to 100 mg/kg,po administration for 14 days by flow cytomtery relative to control; type: functional, organism-based; settings: dose 10-100 mg/kg, time 14.0 day
[24] = target: Tyrosine-protein kinase BTK (Homo sapiens, UniProt Q06187); assay: Binding affinity to BTK (unknown origin) assessed as dissociation constant by surface plasmon resonance assay
[25] = Drug uptake in cynomolgus monkey plasma at po administration measured for 24 hrs; type: ADME, organism-based, Macaca fascicularis; settings: in vivo
[26] = target: Protein cereblon/Tyrosine-protein kinase BTK (Homo sapiens, UniProt Q06187+Q96SW2); assay: PROTAC activity at CRBN/BTK in human TMD8 cells assessed as maximal degradation of BTK protein incubated for 4 hrs by HTRF assay relative to control; type: cell-based
[27] = target: Cytochrome P450 2C9 (Homo sapiens, UniProt P11712); assay: Inhibition of CYP2C9 (unknown origin); type: ADME
[28] = Aqueous solubility of the compound in PBS at pH 7.4; type: physicochemical
[29] = Observed clearance in cynomolgus monkey at 1 mg/kg,iv; type: ADME, organism-based, Macaca fascicularis; settings: in vivo
[30] = target: Cytochrome P450 3A4 (Homo sapiens, UniProt P08684); assay: Time dependent inhibition of CYP3A4 (unknown origin); type: ADME
[31] = Plasma protein binding in human; type: ADME, cell-free; settings: read-out: PPB (converted)
[32] = target: Protein cereblon/Tyrosine-protein kinase BTK (Mus musculus) (UniProt P35991+Q8C7D2); assay: In vivo protac activity at CRBN/BTK in BALB/c mouse assessed as residual BTK protein in blood at 10 mg/kg,po administration measured after 24 hrs by flow cytomtery relative to control
[33] = target: T2, Protein cereblon/Zinc finger protein Aiolos (Macaca fascicularis); assay: In vivo protac activity at CRBN/IKZF3 in cynomolgus monkey assessed as degradation of IKZF3 protein at 100 mg/kg,po administration for 14 days by flow cytomtery relative to control; type: functional, organism-based; settings: time 14.0 day
[34] = tested on: TMD8; assay: Antitumor activity against human TMD8 cells expressing BTK C481S mutant xenografted in CB17-SCID mouse assessed as tumor growth inhibition at 10 mg/kg,po administration for 25 days; type: functional; settings: TMD8, 600 h, time 25 day, read-out: TGI

T2 sequence (A0A2K5UTB3 1-488): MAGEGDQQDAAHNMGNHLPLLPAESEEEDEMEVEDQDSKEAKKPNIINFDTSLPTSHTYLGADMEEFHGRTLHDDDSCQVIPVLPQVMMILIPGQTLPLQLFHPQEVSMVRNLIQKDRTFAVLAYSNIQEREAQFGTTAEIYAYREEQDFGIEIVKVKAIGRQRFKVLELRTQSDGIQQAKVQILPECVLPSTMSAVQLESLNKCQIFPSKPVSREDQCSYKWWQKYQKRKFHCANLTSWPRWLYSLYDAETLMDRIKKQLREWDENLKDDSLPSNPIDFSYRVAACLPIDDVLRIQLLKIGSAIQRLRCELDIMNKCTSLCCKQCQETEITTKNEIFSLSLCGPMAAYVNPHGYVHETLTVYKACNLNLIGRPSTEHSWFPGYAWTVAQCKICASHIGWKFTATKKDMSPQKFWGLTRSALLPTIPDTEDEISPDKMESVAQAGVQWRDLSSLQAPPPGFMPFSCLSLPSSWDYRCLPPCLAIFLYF
T2 sequence (A0A2K5VJM3 entry or part of it partner): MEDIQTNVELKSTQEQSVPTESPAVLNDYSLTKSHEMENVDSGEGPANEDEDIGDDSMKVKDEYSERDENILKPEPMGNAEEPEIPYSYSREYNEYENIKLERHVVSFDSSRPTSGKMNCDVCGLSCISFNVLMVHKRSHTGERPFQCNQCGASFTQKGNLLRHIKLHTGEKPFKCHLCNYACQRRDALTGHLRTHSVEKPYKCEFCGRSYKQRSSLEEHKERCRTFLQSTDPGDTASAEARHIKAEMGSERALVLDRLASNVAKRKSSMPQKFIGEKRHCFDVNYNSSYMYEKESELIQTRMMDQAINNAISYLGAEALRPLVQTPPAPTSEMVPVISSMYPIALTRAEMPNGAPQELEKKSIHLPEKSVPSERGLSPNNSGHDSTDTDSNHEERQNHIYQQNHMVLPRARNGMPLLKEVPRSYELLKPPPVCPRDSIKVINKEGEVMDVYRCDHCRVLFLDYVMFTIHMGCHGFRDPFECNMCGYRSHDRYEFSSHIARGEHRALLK
T1 sequence (A0A2K5UTB3 1-488): as the sequence (A0A2K5UTB3 1-488) above
T1 sequence (A0A7N9IGT8 entry or part of it partner): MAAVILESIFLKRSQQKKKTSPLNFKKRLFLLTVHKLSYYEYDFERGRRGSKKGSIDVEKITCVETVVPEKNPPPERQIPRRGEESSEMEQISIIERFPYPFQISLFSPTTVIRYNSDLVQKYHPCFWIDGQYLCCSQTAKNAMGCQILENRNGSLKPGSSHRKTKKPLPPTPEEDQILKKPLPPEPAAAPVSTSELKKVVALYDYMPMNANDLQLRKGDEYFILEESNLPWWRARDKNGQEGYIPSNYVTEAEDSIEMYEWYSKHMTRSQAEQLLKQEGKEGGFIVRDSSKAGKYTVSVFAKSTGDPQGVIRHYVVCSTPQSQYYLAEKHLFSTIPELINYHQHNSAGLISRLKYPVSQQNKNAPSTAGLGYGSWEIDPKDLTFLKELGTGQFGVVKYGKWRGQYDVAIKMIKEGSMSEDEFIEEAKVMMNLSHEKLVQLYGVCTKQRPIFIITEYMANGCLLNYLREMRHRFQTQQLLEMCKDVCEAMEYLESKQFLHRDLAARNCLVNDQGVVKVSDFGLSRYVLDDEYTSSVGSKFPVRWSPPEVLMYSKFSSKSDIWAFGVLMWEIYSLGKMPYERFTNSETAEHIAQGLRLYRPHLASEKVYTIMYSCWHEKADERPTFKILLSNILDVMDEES
Chain of Cytochrome P450 3A4 (P08684 whole entry): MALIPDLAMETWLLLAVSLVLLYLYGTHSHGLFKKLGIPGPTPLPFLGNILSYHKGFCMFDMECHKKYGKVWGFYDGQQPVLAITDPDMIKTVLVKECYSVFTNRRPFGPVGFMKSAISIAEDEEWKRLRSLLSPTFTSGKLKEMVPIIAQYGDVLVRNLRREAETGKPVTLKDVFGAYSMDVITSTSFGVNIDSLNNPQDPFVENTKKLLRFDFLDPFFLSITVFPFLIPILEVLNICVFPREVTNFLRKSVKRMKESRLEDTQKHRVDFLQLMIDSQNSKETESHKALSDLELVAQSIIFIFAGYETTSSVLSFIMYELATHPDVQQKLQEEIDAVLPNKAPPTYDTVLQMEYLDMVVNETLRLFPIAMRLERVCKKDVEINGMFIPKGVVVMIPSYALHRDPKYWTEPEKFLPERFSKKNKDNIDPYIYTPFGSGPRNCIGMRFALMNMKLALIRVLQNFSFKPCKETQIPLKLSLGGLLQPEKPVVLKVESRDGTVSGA
Chain of Tyrosine-protein kinase BTK (Homo sapiens, UniProt Q06187, C481S) (Q06187 2-659 C481S limits assumed): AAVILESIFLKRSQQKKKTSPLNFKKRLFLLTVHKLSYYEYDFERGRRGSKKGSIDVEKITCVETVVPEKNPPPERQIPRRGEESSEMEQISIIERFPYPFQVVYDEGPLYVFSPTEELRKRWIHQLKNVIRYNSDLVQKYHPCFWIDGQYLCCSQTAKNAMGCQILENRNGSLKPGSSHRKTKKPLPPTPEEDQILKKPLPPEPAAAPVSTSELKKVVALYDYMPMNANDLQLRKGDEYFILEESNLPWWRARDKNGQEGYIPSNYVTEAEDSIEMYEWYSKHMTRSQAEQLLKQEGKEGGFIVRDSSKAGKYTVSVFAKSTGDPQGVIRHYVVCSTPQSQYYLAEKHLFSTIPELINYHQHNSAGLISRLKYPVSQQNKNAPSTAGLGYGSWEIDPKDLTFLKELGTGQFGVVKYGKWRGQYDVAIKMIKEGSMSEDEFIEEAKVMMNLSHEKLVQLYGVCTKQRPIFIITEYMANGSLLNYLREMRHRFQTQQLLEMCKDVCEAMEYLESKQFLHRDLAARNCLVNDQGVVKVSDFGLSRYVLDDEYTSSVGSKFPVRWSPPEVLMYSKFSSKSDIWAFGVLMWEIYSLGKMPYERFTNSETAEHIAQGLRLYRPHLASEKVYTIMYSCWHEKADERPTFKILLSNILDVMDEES
Chain of Cytochrome P450 2C9 (P11712 whole entry): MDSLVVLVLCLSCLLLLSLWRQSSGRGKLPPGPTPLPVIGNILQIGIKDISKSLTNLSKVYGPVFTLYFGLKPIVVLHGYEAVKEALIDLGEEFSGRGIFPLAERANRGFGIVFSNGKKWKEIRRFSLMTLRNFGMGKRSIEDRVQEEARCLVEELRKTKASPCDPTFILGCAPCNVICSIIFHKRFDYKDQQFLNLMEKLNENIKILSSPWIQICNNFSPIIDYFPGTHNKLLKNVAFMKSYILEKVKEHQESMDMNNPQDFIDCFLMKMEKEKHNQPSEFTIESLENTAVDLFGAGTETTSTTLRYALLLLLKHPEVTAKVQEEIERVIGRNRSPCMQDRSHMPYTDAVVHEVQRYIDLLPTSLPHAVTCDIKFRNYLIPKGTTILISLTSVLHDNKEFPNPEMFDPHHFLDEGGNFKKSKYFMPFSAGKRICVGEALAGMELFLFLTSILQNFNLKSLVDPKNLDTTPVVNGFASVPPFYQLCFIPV
Chain of Cereblon/Ikaros (Q96SW2 whole entry): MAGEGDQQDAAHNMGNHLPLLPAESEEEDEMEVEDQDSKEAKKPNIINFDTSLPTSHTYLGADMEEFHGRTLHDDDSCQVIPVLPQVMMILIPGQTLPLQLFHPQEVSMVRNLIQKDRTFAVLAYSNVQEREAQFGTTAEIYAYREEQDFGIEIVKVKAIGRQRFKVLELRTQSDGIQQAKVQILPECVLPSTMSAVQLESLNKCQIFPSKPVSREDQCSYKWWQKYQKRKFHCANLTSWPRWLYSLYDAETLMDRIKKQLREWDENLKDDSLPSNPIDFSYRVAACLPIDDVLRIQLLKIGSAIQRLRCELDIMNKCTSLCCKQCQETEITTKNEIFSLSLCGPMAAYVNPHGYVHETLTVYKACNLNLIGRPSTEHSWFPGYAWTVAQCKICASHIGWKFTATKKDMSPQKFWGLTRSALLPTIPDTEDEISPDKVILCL
Chain of Cereblon/Ikaros (Q13422 whole entry): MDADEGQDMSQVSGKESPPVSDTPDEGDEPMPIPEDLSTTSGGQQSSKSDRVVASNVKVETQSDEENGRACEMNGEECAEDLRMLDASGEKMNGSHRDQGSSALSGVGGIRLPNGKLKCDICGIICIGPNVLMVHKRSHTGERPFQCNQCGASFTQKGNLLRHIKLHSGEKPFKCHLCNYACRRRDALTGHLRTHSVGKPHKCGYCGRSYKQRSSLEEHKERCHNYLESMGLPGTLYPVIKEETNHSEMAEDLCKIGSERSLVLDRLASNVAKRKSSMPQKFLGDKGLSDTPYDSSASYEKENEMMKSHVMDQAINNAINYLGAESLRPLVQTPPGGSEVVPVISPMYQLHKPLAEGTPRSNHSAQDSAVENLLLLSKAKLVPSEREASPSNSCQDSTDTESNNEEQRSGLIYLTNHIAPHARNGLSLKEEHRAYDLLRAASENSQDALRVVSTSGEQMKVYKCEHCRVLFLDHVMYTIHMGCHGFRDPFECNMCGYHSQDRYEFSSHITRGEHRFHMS
Chain of Protein cereblon/Tyrosine-protein kinase BTK (Q06187 2-659 limits assumed): as the sequence (Q06187 2-659 C481S limits assumed) above, with S480C counted along it
Chain of Protein cereblon/Tyrosine-protein kinase BTK (Q96SW2 whole entry partner): as the sequence (Q96SW2 whole entry) above

## NC(=O)c1ncc(N2CCCCC2)nc1Nc1ccc(C2CCN(C[C@H]3CCN(c4ccc5c(c4)C(=O)N(C4CCC(=O)NC4=O)C5=O)C3)CC2)cc1 (some centres undefined) [ZELEBRUDOMIDE]
[1]
  Activity: 11%
[2]
  Cmax: 26.9 ng/mL
[3]
  IC50: > 30000 nM
[4]
  Cmax: 1300 nM
[5]
  Activity: 55%
[6]
  fraction unbound: 0.046
[7]
  Activity: 10%
[8]
  DC50: 57 nM
[9]
  Cmax: 67 nM
[10]
  Activity: 8%
[11]
  inhibition in vivo at 90 mg/kg: 59%
[12]
  logD: 3.1
[13]
  Kd: 18 nM
[14]
  Activity: Active
[15]
  Activity: inactive
[16]
  Activity: Active
[17]
  Activity: 76%
[18]
  fraction unbound: < 0.015
[19]
  inhibition in vivo at 30 mg/kg: 73%
[20]
  Drug uptake: Dose-Dependent Effect
[21]
  clearance: 18.4 mL/min/kg
[22]
  clearance: 19 mL/min/kg
[23]
  Activity: < 10%
[24]
  Kd: 45 nM
[25]
  Drug uptake: Dose-Dependent Effect
[26]
  Emax: 94%
[27]
  IC50: > 30000 nM
[28]
  solubility: 0.2 µM (≈ 0.144 µg/mL)
[29]
  clearance: 22.2 mL/min/kg
[30]
  TDI: Not Active
[31]
  fraction unbound: 0.063
[32]
  residual activity: 21%
[33]
  Activity: 43%
[34]
  inhibition in vivo at 10 mg/kg: 17%
